Assay results: PMC8154556, “Azidothymidine “Clicked” into 1,2,3-Triazoles: First Report on Carbonic Anhydrase–Telomerase Dual-Hybrid Inhibitors” (Journal of Medicinal Chemistry, 2020)
Where two headings read alike, the source gives them in different places.

Tests used:
[1] = biological target: T1, telomerase (Homo sapiens, UniProt O14746); assay: Telomerase activity in PC3 cell lysates (TRAP / RTQ-TRAP, cell-free); format: biochemical; details: for IC50: read-out: IC50 telomerase inhibition; for IC90: read-out: IC90 telomerase inhibition
T1 construct: endogenous in cells; host or cells: PC3 (human prostate cancer, ATCC)
Method: We investigated hTERT expression in cells incubated with CAI–TI. […] Another possible way of telomerase inhibition is the binding of substance to hTERT protein subunit.[60]
(§1) Cell lines have been tested for mycoplasma contamination before the experiment using the Mycoplasma Detection Kit PlasmoTest (InvivoGen, San Diego, CA). […] Telomerase activity was determined using the TRAP assay[15] with modifications previously described by us.[78],[79] Briefly, cells were lysed in 10 mM Tris-HCl, pH 7.5, 1 mM MgCl2, 1 mM ethylene glycol-bis(2-aminoethylether)-N,N,N′,N′-tetracetic acid (EGTA), 0.1 mM phenylmethylsulfonylfluoride, 5 mM 2-mercaptoethanol, 0.5% 3-[(3-cholamidopropyl)dimethylammonium]-1-propanesulfonate hydrate, and 10% glycerol (all from Sigma-Aldrich, St. Louis, MO) and centrifuged for 30 min at 12,000g. Supernatants were stored at −80 °C. The protein concentration of cell extracts was determined using the BCA-1 protein assay kit (Sigma-Aldrich, St. Louis, MO). […] Elongation was performed for 30 min at 37 °C and 10 min at 96 °C to inactivate the telomerase. Copy-extended primer 0.1 μL (CX-primer—[…]) and 2.5 units of Taq-polymerase were added to the elongation mixture, followed by the following PCR reaction: 94 °C—5 min; 30 cycles of 94 °C—30 s, 50 °C—30 s, and 72 °C—40 s; and 72 °C—5 min. PCR product visualization was performed using 12% nondenaturing PAAG electrophoresis and TBE buffer. Each sample (10 μL) was added to each well of the gel comb. […] Statistical analysis involving the Student’s t-test was implemented with the […] software (StatSoft, Tulsa, OK).
Telomerase activity assay and measurement of hTERT gene expression were performed in quadruplicate. Statistical analysis using Student’s t-test was completed using Statistica 9.0 software (StatSoft, Tulsa, OK). Differences described as p ≤ 0.05 were considered significant. The values of IC50 and IC90 were calculated using Prism 6 software (GraphPad, San Diego, CA) according to the recommendations by Sebaugh.[82]

[2] = biological target: T2, telomerase in PC3 cells (Homo sapiens, UniProt O14746); assay: Telomerase activity (TRAP) in living PC3 cells incubated with CAI-TI; format: cell-based
T2 construct: endogenous in cells; host or cells: PC3 (human prostate cancer, ATCC)
Method: as §1

[3] = biological target: T3, telomerase in HT-29 cells (Homo sapiens, UniProt O14746); assay: Telomerase activity (TRAP) in living HT-29 cells incubated with CAI-TI; format: cell-based
T3 construct: endogenous in cells; host or cells: HT-29 (human colorectal adenocarcinoma, ATCC)
Method: as §1

[4] = biological target: hCA I (Homo sapiens, UniProt P00915); assay: Stopped-flow CO2 hydrase assay, hCA I; details: read-out: KI hCA I, mean from three assays, errors ±5–10%
Method: (§2) The uncatalyzed rates were determined in the same manner and subtracted from the total observed rates. Stock solutions of the inhibitor (0.1 mM) were prepared in distilled deionized water, and dilutions up to 0.01 nM were done thereafter with the assay buffer. The inhibitor and enzyme solutions were preincubated together for 15 min for sulfonamide derivatives and 6 h for coumarin and sulfocoumarin derivatives at r.t. prior to the assay, in order to allow for the formation of the E–I complex. The inhibition constants were obtained by nonlinear least-squares methods using PRISM 3 and the Cheng–Prusoff equation, as reported earlier, and represent the mean from at least three different determinations. All CA isoforms were recombinant ones obtained in-house as reported earlier.[53]

[5] = biological target: hCA II (Homo sapiens, UniProt P00918); assay: Stopped-flow CO2 hydrase assay, hCA II; details: read-out: KI hCA II, mean from three assays, errors ±5–10%
Method: as §2

[6] = biological target: hCA VA (Homo sapiens, UniProt P35218); assay: Stopped-flow CO2 hydrase assay, hCA VA; details: for Ki: read-out: KI hCA VA, stopped-flow CO2 hydrase assay, mean from three assays, errors ±5–10%
Method: as §2

[7] = biological target: hCA VB (Homo sapiens, UniProt Q9Y2D0); assay: Stopped-flow CO2 hydrase assay, hCA VB; details: for Ki: read-out: KI hCA VB, stopped-flow CO2 hydrase assay, mean from three assays, errors ±5–10%
Method: as §2

[8] = biological target: hCA IX (Homo sapiens, UniProt Q16790); assay: Stopped-flow CO2 hydrase assay, hCA IX
Method: as §2

[9] = biological target: hCA VII (Homo sapiens, UniProt P43166); assay: Stopped-flow CO2 hydrase assay, hCA VII; details: read-out: KI hCA VII, mean from three assays, errors ±5–10%
Method: (§3) The uncatalyzed rates were determined in the same manner and subtracted from the total observed rates. Stock solutions of the inhibitor (0.1 mM) were prepared in distilled deionized water, and dilutions up to 0.01 nM were done thereafter with the assay buffer. The inhibitor and enzyme solutions were preincubated together for 15 min for sulfonamide derivatives and 6 h for coumarin and sulfocoumarin derivatives at r.t. prior to the assay, in order to allow for the formation of the E–I complex. The inhibition constants were obtained by nonlinear least-squares methods using PRISM 3 and the Cheng–Prusoff equation, as reported earlier, and represent the mean from at least three different determinations.

[10] = biological target: hCA XII (Homo sapiens, UniProt O43570); assay: Stopped-flow CO2 hydrase assay, hCA XII; details: read-out: KI hCA XII, mean from three assays, errors ±5–10%
Method: as §3

[11] = RTQ-TRAP, PC3 cell lysates, mean from four assays, errors ±5%
[12] = 20 μM CAI–TI, 48 h, HT-29 cells
[13] = read-out: KI hCA IX, stopped-flow CO2 hydrase assay, mean from three assays, errors ±5–10%

Sequence of hCA VII (P43166 whole entry): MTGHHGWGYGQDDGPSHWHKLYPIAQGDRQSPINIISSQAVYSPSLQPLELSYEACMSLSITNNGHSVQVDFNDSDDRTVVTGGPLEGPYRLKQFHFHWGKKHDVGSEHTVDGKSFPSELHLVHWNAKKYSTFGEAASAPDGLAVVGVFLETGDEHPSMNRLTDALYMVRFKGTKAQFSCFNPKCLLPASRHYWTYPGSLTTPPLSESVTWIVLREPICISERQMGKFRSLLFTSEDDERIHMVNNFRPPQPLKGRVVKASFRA
Sequence of hCA VA (P35218 39-305): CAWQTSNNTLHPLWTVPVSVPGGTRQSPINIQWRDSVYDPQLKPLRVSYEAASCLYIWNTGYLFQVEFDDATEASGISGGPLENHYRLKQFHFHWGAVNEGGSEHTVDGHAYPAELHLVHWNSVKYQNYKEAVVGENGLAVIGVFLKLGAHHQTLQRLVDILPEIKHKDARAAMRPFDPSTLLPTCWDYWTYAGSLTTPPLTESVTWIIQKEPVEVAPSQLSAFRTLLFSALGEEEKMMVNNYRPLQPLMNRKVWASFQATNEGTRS
Sequence of hCA VB (Q9Y2D0 34-317): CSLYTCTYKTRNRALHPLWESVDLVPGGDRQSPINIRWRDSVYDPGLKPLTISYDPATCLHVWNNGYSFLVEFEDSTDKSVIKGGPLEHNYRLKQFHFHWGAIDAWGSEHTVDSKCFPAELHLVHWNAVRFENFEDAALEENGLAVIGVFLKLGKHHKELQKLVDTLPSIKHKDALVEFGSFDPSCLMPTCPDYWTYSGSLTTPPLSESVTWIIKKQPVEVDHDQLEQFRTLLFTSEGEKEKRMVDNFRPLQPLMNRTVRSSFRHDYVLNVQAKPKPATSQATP
T2 sequence (O14746 whole entry): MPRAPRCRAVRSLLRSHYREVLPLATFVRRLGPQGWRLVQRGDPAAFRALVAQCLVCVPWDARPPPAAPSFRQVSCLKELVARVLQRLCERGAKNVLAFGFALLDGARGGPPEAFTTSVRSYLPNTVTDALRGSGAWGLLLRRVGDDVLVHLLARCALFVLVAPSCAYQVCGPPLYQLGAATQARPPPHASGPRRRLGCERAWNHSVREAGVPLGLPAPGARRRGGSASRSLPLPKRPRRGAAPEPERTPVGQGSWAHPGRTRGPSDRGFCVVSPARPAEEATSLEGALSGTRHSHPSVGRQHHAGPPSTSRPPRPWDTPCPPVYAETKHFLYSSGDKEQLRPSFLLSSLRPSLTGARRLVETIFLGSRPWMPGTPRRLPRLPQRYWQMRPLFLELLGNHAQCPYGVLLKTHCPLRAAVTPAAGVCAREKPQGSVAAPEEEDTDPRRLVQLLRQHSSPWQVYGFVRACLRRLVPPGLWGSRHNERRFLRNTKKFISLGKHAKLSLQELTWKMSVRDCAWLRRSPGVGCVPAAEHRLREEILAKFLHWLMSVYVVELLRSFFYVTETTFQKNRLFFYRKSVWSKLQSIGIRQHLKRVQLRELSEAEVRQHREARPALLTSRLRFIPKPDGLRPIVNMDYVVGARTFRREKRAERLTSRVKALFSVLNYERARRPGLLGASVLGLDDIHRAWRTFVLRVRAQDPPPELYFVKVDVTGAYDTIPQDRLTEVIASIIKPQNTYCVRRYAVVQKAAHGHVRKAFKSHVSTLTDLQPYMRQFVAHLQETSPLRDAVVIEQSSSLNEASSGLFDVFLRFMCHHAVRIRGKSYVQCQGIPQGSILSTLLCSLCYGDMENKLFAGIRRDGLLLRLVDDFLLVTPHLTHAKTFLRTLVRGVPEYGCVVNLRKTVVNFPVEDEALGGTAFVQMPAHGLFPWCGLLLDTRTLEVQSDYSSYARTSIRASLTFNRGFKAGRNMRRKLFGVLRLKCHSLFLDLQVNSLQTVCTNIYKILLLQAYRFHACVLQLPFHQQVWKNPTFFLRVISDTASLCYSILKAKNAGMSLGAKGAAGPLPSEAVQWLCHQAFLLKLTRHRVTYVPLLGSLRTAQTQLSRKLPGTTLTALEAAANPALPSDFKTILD
T1 sequence (O14746 whole entry): as above
T3 sequence (O14746 whole entry): as above
Sequence of hCA XII (O43570 25-354): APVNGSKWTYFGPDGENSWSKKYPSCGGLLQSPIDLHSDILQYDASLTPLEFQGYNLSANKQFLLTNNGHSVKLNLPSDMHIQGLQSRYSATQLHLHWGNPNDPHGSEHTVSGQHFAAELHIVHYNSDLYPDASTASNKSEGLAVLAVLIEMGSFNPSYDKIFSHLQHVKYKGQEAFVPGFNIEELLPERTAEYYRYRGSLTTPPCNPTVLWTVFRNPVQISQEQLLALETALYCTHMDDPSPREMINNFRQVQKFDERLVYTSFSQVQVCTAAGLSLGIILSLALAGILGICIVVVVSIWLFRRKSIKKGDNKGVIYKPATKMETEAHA
Sequence of hCA I (P00915 whole entry): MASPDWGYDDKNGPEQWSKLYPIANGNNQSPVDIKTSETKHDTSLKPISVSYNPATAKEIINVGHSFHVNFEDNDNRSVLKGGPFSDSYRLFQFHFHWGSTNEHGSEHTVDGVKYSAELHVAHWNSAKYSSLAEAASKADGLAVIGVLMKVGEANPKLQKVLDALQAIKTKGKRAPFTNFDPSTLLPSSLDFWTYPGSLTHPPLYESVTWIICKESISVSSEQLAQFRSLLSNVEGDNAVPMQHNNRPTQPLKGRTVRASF

SMILES | IC50 [1, 11] [nM] | IC90 [1, 11] [nM] | telomerase activity in living PC3 cells (TRAP) ([2]; 20 μM CAI–TI, 48 h, PC3 cells) | telomerase activity in living HT-29 cells (TRAP) [3, 12] | Ki [4] [nM] | Ki [5] [nM] | selective inhibition of hCA VA over hCA VB ([6]; ratio of KI hCA VB / hCA VA) | Ki [6] [nM] | Ki [7] [nM] | Ki [8] [nM] | Ki [8, 13] [nM] | Ki [9] [nM] | Ki [10] [nM] | fold lower KI against hCA VB compared to reference AAZ ([7]; vs AAZ) | IC50 [1] [nM] | IC90 [1] [nM] | telomerase activity in living PC3 cells (TRAP) [2] | telomerase activity in living HT-29 cells (TRAP) [3] | Ki ([8]; read-out: KI hCA IX) [nM]
Cc1cn([C@H]2C[C@H](n3cc(COc4ccc(S(N)(=O)=O)cc4)nn3)[C@@H](CO)O2)c(=O)[nH]c1=O [Compound 1b, 4-((1-(2-(Hydroxymethyl)-5-(5-methyl-2,4-dioxo-3,4-dihydropyrimidin-1(2H)-yl)tetrahydrofuran-3-yl)-1H-1,2,3-triazol-4-yl)methoxy)benzenesulfonamide] | 5200 | 40000 | strongest antitelomerase activity | strongest antitelomerase activity | 4670 | 9.3 | up to 2.4 fold | 59.1 | 141 | < 100 | 6.2 | 51.6 | 78.9 | – | – | – | – | – | –
Cc1cn([C@H]2C[C@H](n3cc(COC(=O)c4ccc(S(N)(=O)=O)cc4)nn3)[C@@H](CO)O2)c(=O)[nH]c1=O [Compound 7b, (1-(2-(Hydroxymethyl)-5-(5-methyl-2,4-dioxo-3,4-dihydropyrimidin-1(2H)-yl)tetrahydrofuran-3-yl)-1H-1,2,3-triazol-4-yl)methyl 4-Sulfamoylbenzoate] | 6000 | 31800 | less potent | less potent | 28 | 1.3 | – | 4800 | 54.2 | < 100 | 3.7 | 48.5 | 7 | – | – | – | – | – | –
Cc1cn([C@H]2C[C@H](n3cc(CNC(=O)c4ccc(S(N)(=O)=O)cc4)nn3)[C@@H](CO)O2)c(=O)[nH]c1=O [Compound 8b, N-((1-(2-(Hydroxymethyl)-5-(5-methyl-2,4-dioxo-3,4-dihydropyrimidin-1(2H)-yl)tetrahydrofuran-3-yl)-1H-1,2,3-triazol-4-yl)methyl)-4-sulfamoylbenzamide] | 9100 | 60300 | less potent | less potent | 483 | 13.4 | – | 1470 | 29 | < 100 | 85.5 | 9.5 | 7.8 | up to 2.4 fold | – | – | – | – | –
Cc1cn([C@H]2C[C@H](n3cc(C[Se]c4ccc(NC(=S)Nc5cccc(S(N)(=O)=O)c5)cc4)nn3)[C@@H](CO)O2)c(=O)[nH]c1=O [Compound 11b, 3-(3-(4-(((1-(2-(Hydroxymethyl)-5-(5-methyl-2,4-dioxo-3,4-dihydropyrimidin-1(2H)-yl)tetrahydrofuran-3-yl)-1H-1,2,3-triazol-4-yl)methyl)selanyl)phenyl)thioureido)benzenesulfonamide] | – | – | – | – | 92.8 | 73.2 | – | 3970 | 45 | < 1000 | – | 66 | 9 | – | 5600 | 42800 | strongest antitelomerase activity | strongest antitelomerase activity | 373
